# Structures can show the parent of a compound that is named as a salt.
# Key:
# TTXs sodium channels = test: TTXs-sodium channel influx assay (fluorescence, ND7/23 cell line); type: cell-based, rat; conditions: ND7/23 cells, veratridine 100 μM; read-out: Na+ influx IC50
# Protocol: ND7/23 rat dorsal root ganglion-derived cell line endogenously expresses a mixed population of TTXs sodium channels. These cells lack of TTXr sodium channels as shown by the absence of their respective transcripts.
# ND7/23 cells were grown in DMEM supplemented with 10% FBS and 1 mM sodium piruvate. The cells were seeded at 50,000 cells/well on 96 poly-L-lysine-coated plates and further incubated for 18-24 h before use.
# The Membrane Potential Kit Assay (Molecular Devices), based on a negatively charged fluorescent dye able to monitor changes in membrane potential caused by the sodium influx due to the channel opening, was used for the assay.
# Cells were incubated with the dye loading for 30 minutes at 25° C. Then, 100 nM of the toxin Anemonia sulcata (used as enhancer of the channel opener response) alone or in the presence of TTX (as reference standard) or test compound were added for further 15 minutes.
# The fluorescence (excitation:530 nm, emission: 565 nm wavelength) was measured before and after (40-45 s) the automated injection of the sodium channel opener veratridine (100 μM) using a Victor plate reader (Perkin Elmer).
# (§1) The inhibition curves were calculated from 5 concentrations, each in triplicate, and the IC50 determined using linear regression analysis.
# L-type calcium channels = test: Calcium channel influx assay (fluorescence, AtT20 cell line); type: cell-based, mouse; conditions: AtT20 cells, 100 mM KCl depolarization; read-out: Ca++ influx IC50
# Protocol: AtT20/D16v-F2 mouse pituitary tumour cell line preferentially expresses L-type calcium channels.
# AtT20 cells were grown in DMEM with 10% of FBS, 4 mM glutamine. The cells were seeded at 200,000 cells/well on 96 poly-L-lysine-coated plates and further incubated for 18-24 h, before use.
# The Ca^++ Kit Assay (Molecular Devices), which is based on a fluorescent calcium indicator to detect the calcium influx determined by depolarizing conditions, was used for the assay.
# Cells were incubated with the calcium dye loading for 30 min at 37° C. Then, ω-conotoxin alone (1 μM) or in presence of nifedipine (as reference standard) or test compound were added for further 15 min.
# The fluorescence (excitation: 485-emission: 535 nm wavelength) was measured before and after (30-40 sec) the automated injection of 100 mM KCl depolarizing solution using a Victor plate reader (Perkin Elmer).
# as §1
# mice = test: Maximal electroshock test (MES) in mice; type: in vivo; conditions: mice, MES
# Description: The maximal electroshock test (MES) is used commonly in the screening of anti-epileptic drugs in rodent models.
# Animals and Apparatus: Male CD1 mice weighing 25 g were used. The procedure described by White et al. (White H. S., Woodhead J. H., Franklin M. R., Swinyard E. A., and Wolf H. H. Antiepileptic Drugs (1995) 4th ed: 99-110, Raven Press, Ltd., New York) was followed. An Ugo Basile electroconvulsive generator (Model ECT UNIT 7801) was used to deliver an electrical stimulus sufficient to produce a hindlimb tonic extensor response in at least 97% of control animals. The stimulus was delivered intra-aurally through clip electrodes in mice (0.7 s of a 40 mA shock, with a pulse train of 80 Hz having a pulse duration of 0.4 ms). The acute effect of compounds administered intraperitoneally (i.p.), subcutaneously (s.c.), intravenously (i.v.) or orally (p.o.) 5-120 minutes before MES induction were examined and compared with a vehicle control group. Ten mice were studied per group. Complete suppression of the hindlimb tonic extensor component of seizures was taken as evidence of anticonvulsant activity.
# The compounds of the invention were administered p.o. or i.v., at the doses of 0.1-100 mg/kg.
SMILES,IC50 (TTXs sodium channels) [nM],IC50 (L-type calcium channels) [nM],% protection 10 mg/kg p.o. (mice) [%],"ED50 (mice; Mus musculus, po, p.o., read-out: ED50 (mg/kg p.o.)) [mg/kg]"
"CCCCOc1cc(CCNCC(=O)N(C)C)ccc1C.Cl [2-[2-(3-Butoxy-4-methylphenyl)-ethylamino]-N,N-dimethylacetamide hydrochloride]",700,10000,40,
CCCCOc1cccc(CCNCC(=O)N2CCCC2)c1 [2-[2-(3-Butoxyphenyl)-ethylamino]-1-pyrrolidin-1-yl-ethanone hydrochloride],2100,,,
"CCCCOc1cccc(CCNC(C)(C)C(=O)N(C)C)c1 [2-[2-(3-Butoxyphenyl)-ethylamino]-2,N,N-trimethylpropanamide hydrochloride]",700,,,
"CCCCOc1cccc(CCNCC(=O)N(CCCC)CCCC)c1 [2-[2-(3-Butoxyphenyl)-ethylamino]-N,N-dibutylacetamide hydrochloride]",1200,1800,,
"CCCCOc1cccc(CCNCC(=O)N(CC)CC)c1 [2-[2-(3-Butoxyphenyl)-ethylamino]-N,N-diethylacetamide hydrochloride]",600,6700,,
"CCCCOc1cccc(CCNCC(=S)N(C)C)c1 [2-[2-(3-Butoxyphenyl)-ethylamino]-N,N-dimethylthioacetamide hydrochloride]",1200,7600,,
"CCCCOc1cccc(CCNCC(=O)N(CCC)CCC)c1 [2-[2-(3-Butoxyphenyl)-ethylamino]-N,N-dipropylacetamide hydrochloride]",500,1100,,
"CCCCSc1cccc(CCNCC(=O)N(C)C)c1 [2-[2-(3-Butylthiophenyl)-ethylamino]-N,N-dimethylacetamide hydrochloride]",,7200,,
"CCCCCCOc1cccc(CCNCC(=O)N(C)C)c1.Cl [2-[2-(3-Hexyloxyphenyl)-ethylamino]-N,N-dimethylacetamide hydrochloride]",500,4000,100,4.6
"CCCCCOc1cccc(CCNCC(=O)N(CCC)CCC)c1 [2-[2-(3-Pentyloxyphenyl)-ethylamino]-N,N-dipropylacetamide hydrochloride]",1100,6900,,
"CN(C)C(=O)CNCCc1cccc(OCCCC(F)(F)F)c1 [2-{2-[3-(4,4,4-Trifluorobutoxy)phenyl]-ethylamino}-N,N-dimethylacetamide hydrochloride]",,9300,,

# Reference: US9051240B2, “Substituted 2-[2-(phenyl) ethylamino] alkaneamide derivatives and their use as sodium and/or calcium channel modulators” (Newron Pharmaceuticals S.P.A., priority 2007, dated 2015)
